Laboratory results published in publication PMC9994261 (Cell, 2023).
Values after ≈ are worked out from the molar mass of the structure shown. Read-outs that look alike come from different tables or passages of the source.

How the values were obtained:
[1] = test system: Mtb H37Rv LuxAB; test: microbe, parasite or virus in culture; type: cell-based; conditions: Mycobacterium tuberculosis
[2] = test system: Mtb ribosome; type: biochemical, Mycobacterium tuberculosis; conditions: read-out: Inhibition of Mtb translation (IC50 μM)
[3] = test system: Mtb H37Rv; test: MIC80 after overnight pre-incubation of Mtb with subinhibitory macrolide; type: cell-based; conditions: Mycobacterium tuberculosis, read-out: MIC80
[4] = test system: Mtb Erdman; test: Mouse model of chronic TB; type: in vivo; conditions: 300 mg/kg oral once daily
[5] = type: in vitro ADME
[6] = test system: Mtb H37Rv; test: Combination study in mouse model of TB; type: in vivo; conditions: 4 weeks
[7] = physchem
[8] = in vitro; type: in vitro ADME; conditions: human, Caco-2; read-out: Permeability in Caco2 cells (Papp)
[9] = test system: RAW264.7 cells; type: in vitro ADME, murine; conditions: RAW macrophages, 10 μM
Experimental: RAW264.7 cells were allowed to adhere in 96 wells plates for 4 hours before compounds were added at 10 μM. Intracellular concentrations were measured by LC-MS/MS after cellular lysis. For each point, up to 4 hours, the Intra/Extra cellular ratio was calculated. Points are the mean ± SD of four tests. Clarithromycin and Azithromycin were used as references.

[10] = test system: Mtb H37Rv; test: Mouse model of highly acute TB; type: in vivo
[11] = test system: M. bovis BCG Pasteur; test: microbe, parasite or virus in culture; type: cell-based, Mycobacterium bovis
[12] = test system: Mtb H37Rv LuxAB; test: microbe, parasite or virus in culture; type: cell-based; conditions: Mycobacterium tuberculosis; remark: listed apart in the source
[13] = pH 2, 50% acetonitrile/water
[14] = type: in vitro ADME; remark: listed apart in the source
[15] = type: in vitro ADME; remark: listed apart in the source
[16] = type: in vitro ADME, human
Procedure, shortened: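 Pooled human liver microsomes (6 donors, 1 mg/mL protein) with 1 mg/mL BSA, 5 μM substrate and 1 mM NADPH, 20 min; stopped with acetonitrile. % oxidative metabolism from unchanged-compound peak areas without versus with NADPH.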

[17] = test system: Mtb methylated ribosome; test: Mtb in vitro translation assay with methylated (erythromycin-treated) ribosome; type: biochemical, Mycobacterium tuberculosis; conditions: read-out: Translation inhibition of Mtb methylated ribosome (IC50 μM)
[18] = in vivo; conditions: male, Swiss, mouse, po; for AUC: oral 30 mg/kg
[19] = physchem; type: physicochemical
[20] = test system: GFP-expressing Mtb H37Rv in RAW264.7 macrophages; test: Intramacrophage assay (MIC for Mtb in macrophages); type: cell-based, Mycobacterium tuberculosis; conditions: Mycobacterium tuberculosis, H37RV
[21] = test system: Mtb H37Rv; test: microbe, parasite or virus in culture; type: cell-based, Mycobacterium tuberculosis
[22] = physchem; conditions: pH 7.4
[23] = mouse po 10 mg/kg, PEG200/Tween80/Citrate Buffer 100mM pH4 (70/5/25)
[24] = mouse po 100 mg/kg, Lipidic formulation CremophorRH40/Capryol90/Mygliol812N (10/20/70) diluted in ½ water
[25] = mouse po 100 mg/kg, PEG200/Tween80/Citrate Buffer 100mM pH4 (70/5/25)
[26] = mouse po 300 mg/kg, PEG200/Tween80/Citrate Buffer 100mM pH4 (70/5/25)

## CON=C1CC(C)OC(OC2C(C)CC(C)(OC(=O)NC(C)(C)CNS(=O)(=O)c3ccccc3)C(=O)C(C)C(OC(=O)CC(C)C)C(C)C(C(C)COC3OC(C)C(O)C(OC)C3OC)OC(=O)C(C)C(OC3CC(C)N(C)CC(C)O3)C2C)C1O (stereo not drawn) [SEQ-9]
[1]; read-out: MIC for Mtb under anaerobic conditions (LORA)
  MIC: 0.6 µM (≈ 0.746 µg/mL)
[1]; read-out: Minimal bactericidal concentration (MBC) for Mtb under anaerobic conditions (LORA)
  MBC: 6.3 µM (≈ 7.83 µg/mL)
[2]
  IC50: 0.075 µM
[3]; Without induction
  MIC80: 1 µM (≈ 1.24 µg/mL)
[3]; overnight pre-incubation with SEQ-9 0.125µg/ml
  MIC80: 1 µM (≈ 1.24 µg/mL)
[3]; overnight pre-incubation with SEQ-9 0.25µg/ml
  MIC80: 1 µM (≈ 1.24 µg/mL)
[3]; overnight pre-incubation with clarithromycin 0.125µg/ml
  MIC80: 1 µM (≈ 1.24 µg/mL)
[3]; overnight pre-incubation with clarithromycin 0.25µg/ml
  MIC80: 1 µM (≈ 1.24 µg/mL)
[4]
  log CFU reduction compared with pre-treatment CFU: 1.7 log CFU
[5]
  Metabolic stability in rat liver microsomes (% metabolized compound after 20 min): 9%
[6]; SEQ-9 300 mg/kg added to B or Pa
  Additional reduction of lung CFU compared with B or Pa alone: approximately 1 log10 CFU
[6]; SEQ-9 300 mg/kg added to L or Z
  Additional reduction of lung CFU compared with L or Z alone: approximately 0.5 log units
[7]
  pKa: 8.3
[8]
  Papp: 1.5 ×10⁻⁶ cm/s
[9]
  Intra-macrophage ratio (intra versus extracellular concentration): ~60 fold
[10]; 100 mg/kg, lipid-based formulation
  Decrease in CFU: 2 log10
[10]; 300 mg/kg, after 2 weeks of treatment
  Reduction of mean lung CFU: 1.42 log10
[10]; lipid-based formulation
  Minimum effective dose (MED): 100 mg/kg
[11]
  Growth inhibition (MIC80): 0.56 µM
[11]; Mycobacterium tuberculosis variant bovis BCG, BCG, read-out: Growth inhibition (MIC80)
  MIC80: 0.32 µM (≈ 0.398 µg/mL)
[11]; Mycobacterium tuberculosis variant bovis BCG, BCG, read-out: MIC in Pasteur M. bovis BCG
  MIC: 0.32 µM (≈ 0.398 µg/mL)
[12]; read-out: MIC (μM) for Mtb in liquid culture + 25% human serum
  MIC: 1.2 µM
[12]; read-out: MIC (μM) for Mtb in liquid culture + 25% mouse serum
  MIC: 2.1 µM
[13]
  Chemical stability: t/12@pH 2: 48 h
[14]
  Metabolic stability in mouse liver microsomes (% metabolized compound after 20 min): 8%
[15]
  Metabolic degradation/clearance from human liver microsomes: 0.03 mL/h/10^6 hepatocytes
[23]
  Lung AUC0-24: 7800 ng·h/mL
  Lung Cmax: 790 ng/mL
[24]
  Lung AUC0-24: 440000 ng·h/mL
  Lung Cmax: 31900 ng/mL
[25]
  Lung AUC0-24: 190000 ng·h/mL
  Lung Cmax: 32900 ng/mL
[26]
  Lung AUC0-24: 840000 ng·h/mL
  Lung Cmax: 252000 ng/mL
Same oral dose of 30 mg/kg in mouse
  Higher plasma AUC compared with SEQ-372: 6 fold
[16]; 20 min incubation
  Metabolic stability in human liver microsomes (% metabolized compound after 20 min): 10%
[16]; in presence of ketoconazole CYP3A inhibitor (K)
  Metabolic stability in human liver microsomes (% metabolized compound after 20 min), (K): 0(K) %
[16]; in presence of quinidine CYP2D6 inhibitor (Q)
  Metabolic stability in human liver microsomes (% metabolized compound after 20 min), (Q): /10(Q) %
[17]
  IC50: 0.064 µM
[18]
  bioavailability: 23%
[18]; 10 mg/kg, pH 4
  AUC(0-t): 1100 ng·h/mL
  Cmax: 140 ng/mL
[18]; 10 mg/kg, pH 4, Lung t1/2, mouse po 10 mg/kg, PEG200/Tween80/Citrate Buffer 100mM pH4 (70/5/25)
  half-life: 4.5 h
[18]; 10 mg/kg, pH 4, Plasma t1/2, mouse po 10 mg/kg, PEG200/Tween80/Citrate Buffer 100mM pH4 (70/5/25)
  half-life: 3 h
[18]; 30 mg/kg
  Kp: 19
[18]; 30 mg/kg, AUC in lung @30 mg/kg, lung
  AUC: 120000 ng·h/mL
[18]; 30 mg/kg, AUC in plasma @30 mg/kg, plasma
  AUC: 6300 ng·h/mL
[18]; 100 mg/kg
  AUC(0-t): 22000 ng·h/mL
  Cmax: 2130 ng/mL
[18]; 100 mg/kg, Lung t1/2, mouse po 100 mg/kg, Lipidic formulation CremophorRH40/Capryol90/Mygliol812N (10/20/70) diluted in ½ water
  half-life: 4.5 h
[18]; 100 mg/kg, Plasma t1/2, mouse po 100 mg/kg, Lipidic formulation CremophorRH40/Capryol90/Mygliol812N (10/20/70) diluted in ½ water
  half-life: 4.2 h
[18]; 100 mg/kg, pH 4
  AUC(0-t): 11000 ng·h/mL
  Cmax: 1390 ng/mL
[18]; 100 mg/kg, pH 4, Lung t1/2, mouse po 100 mg/kg, PEG200/Tween80/Citrate Buffer 100mM pH4 (70/5/25)
  half-life: 6.5 h
[18]; 100 mg/kg, pH 4, Plasma t1/2, mouse po 100 mg/kg, PEG200/Tween80/Citrate Buffer 100mM pH4 (70/5/25)
  half-life: 4.4 h
[18]; 300 mg/kg, pH 4
  AUC(0-t): 21000 ng·h/mL
  Cmax: 3110 ng/mL
[18]; 300 mg/kg, pH 4, Lung t1/2, mouse po 300 mg/kg, PEG200/Tween80/Citrate Buffer 100mM pH4 (70/5/25)
  half-life: 11 h
[19]; MCT pH 7.4, read-out: Solubility: MCT@pH 7.4
  solubility: 530 µg/mL (≈ 426 µM)
[19]; aqueous buffer, PBS pH 7.4, read-out: Solubility: PBS@pH 7.4
  solubility: 51 µg/mL (≈ 41 µM)
[20]; read-out: MIC (μM) for Mtb in macrophages
  MIC: 0.15 µM (≈ 0.187 µg/mL)
[20]; read-out: MIC for Mtb tuberculosis in macrophages
  MIC: 0.11 µM (≈ 0.137 µg/mL)
[21]; Mycobacterium tuberculosis, ERDMAN / H37Rv, H37Rv/Erdman, read-out: MIC (μM) for Mtb in liquid culture
  MIC: 0.7 µM (≈ 0.87 µg/mL)
[21]; Mycobacterium tuberculosis, H37RV, read-out: MIC for Mtb in liquid culture
  MIC: 0.7 µM (≈ 0.87 µg/mL)
[21]; read-out: MIC for Mtb in liquid culture
  MIC: 0.70 µM (≈ 0.87 µg/mL)
[22]
  logD: 3.4
